Reference: PubChem BioAssay AID1963832 (Molecular Pharmacology Branch, DTP, NCI, 2024)

System: 885724-159-R-J1-PDC complex spheroid viability
Experiment: Anticancer human tumor 885724-159-R-J1-PDC patient-derived pancreatic adenocarcinoma cell line growth inhibition [POLQ]
Conditions: for IC50: curve of first compound; for viability, T/C: stronger effect = lower value
Summary of the method: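 PDC + HUVEC + MSC complex spheroids; POLQ inhibitors ± partner drugs; top conc. at/near clinical Cmax, else 10 microM (SN-38 1 microM), half-log dilutions; 37 degrees C, 5% CO2.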
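Further: spheroids exposed to compounds for 7 days.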

Q: `C#Cc1c(F)ccc2cc(O)cc(-c3ncc4c(N5CC6CCC(C5)N6)nc(OCC56CCCN5CC(F)C6)nc4c3F)c12` (configuration not stated) + Nc1ccc(C#CCN(C(=O)Cc2ncc(C(F)(F)F)cc2C(F)(F)F)c2ccc(F)cc2)nn1 was tested. Which IC50 (second compound 0.0316 µM) did it give?
A: 2190 nM

Q: What about the IC50 (second compound 0.1 µM) of the same compound?
A: 3200 nM

Q: What about the IC50 (second compound 0.316 µM) of the same compound?
A: 2780 nM

Q: And the IC50 (second compound 1 µM)?
A: 2950 nM

Q: What about the IC50 (second compound 3.16 µM) of the same compound?
A: 3040 nM

Q: What about the IC50 (second compound 10 µM) of the same compound?
A: 3030 nM

Q: And the viability, T/C (second compound 0.0316 µM, first compound 0.0316 µM)?
A: 90.8%

Q: What about the viability, T/C (second compound 0.0316 µM, first compound 0.1 µM) of the same compound?
A: 92.6%

Q: And the viability, T/C (second compound 0.0316 µM, first compound 0.316 µM)?
A: 90.7%

Q: What about the viability, T/C (second compound 0.0316 µM, first compound 1 µM) of the same compound?
A: 64.2%

Q: And the viability, T/C (second compound 0.0316 µM, first compound 3.16 µM)?
A: 44.2%

Q: And the viability, T/C (second compound 0.0316 µM, first compound 10 µM)?
A: 23.8%

Q: What about the viability, T/C (second compound 0.1 µM, first compound 0.0316 µM) of the same compound?
A: 95.9%

Q: What about the viability, T/C (second compound 0.1 µM, first compound 0.1 µM) of the same compound?
A: 100%

Q: And the viability, T/C (second compound 0.1 µM, first compound 0.316 µM)?
A: 93.9%

Q: And the viability, T/C (second compound 0.1 µM, first compound 1 µM)?
A: 73%

Q: What about the viability, T/C (second compound 0.1 µM, first compound 3.16 µM) of the same compound?
A: 52.1%

Q: What about the viability, T/C (second compound 0.1 µM, first compound 10 µM) of the same compound?
A: 25.3%

Q: And the viability, T/C (second compound 0.316 µM, first compound 0.0316 µM)?
A: 116%

Q: And the viability, T/C (second compound 0.316 µM, first compound 0.1 µM)?
A: 88.4%

Q: What about the viability, T/C (second compound 0.316 µM, first compound 0.316 µM) of the same compound?
A: 84.3%

Q: And the viability, T/C (second compound 0.316 µM, first compound 1 µM)?
A: 71.2%

Q: And the viability, T/C (second compound 0.316 µM, first compound 3.16 µM)?
A: 50.6%

Q: What about the viability, T/C (second compound 0.316 µM, first compound 10 µM) of the same compound?
A: 23.4%

Q: What about the viability, T/C (second compound 1 µM, first compound 0.0316 µM) of the same compound?
A: 89.9%

Q: What about the viability, T/C (second compound 1 µM, first compound 0.1 µM) of the same compound?
A: 96.6%

Q: And the viability, T/C (second compound 1 µM, first compound 0.316 µM)?
A: 86.7%

Q: What about the viability, T/C (second compound 1 µM, first compound 1 µM) of the same compound?
A: 71.3%

Q: And the viability, T/C (second compound 1 µM, first compound 3.16 µM)?
A: 49.6%

Q: And the viability, T/C (second compound 1 µM, first compound 10 µM)?
A: 24.2%

Q: And the viability, T/C (second compound 3.16 µM, first compound 0.0316 µM)?
A: 85.3%

Q: And the viability, T/C (second compound 3.16 µM, first compound 0.1 µM)?
A: 87.2%

Q: What about the viability, T/C (second compound 3.16 µM, first compound 0.316 µM) of the same compound?
A: 89.1%

Q: What about the viability, T/C (second compound 3.16 µM, first compound 1 µM) of the same compound?
A: 75.9%

Q: And the viability, T/C (second compound 3.16 µM, first compound 3.16 µM)?
A: 49.5%

Q: And the viability, T/C (second compound 3.16 µM, first compound 10 µM)?
A: 24.5%

Q: What about the viability, T/C (second compound 10 µM, first compound 0.0316 µM) of the same compound?
A: 98.6%

Q: And the viability, T/C (second compound 10 µM, first compound 0.1 µM)?
A: 89%

Q: What about the viability, T/C (second compound 10 µM, first compound 0.316 µM) of the same compound?
A: 96.8%

Q: What about the viability, T/C (second compound 10 µM, first compound 1 µM) of the same compound?
A: 72.6%

Q: What about the viability, T/C (second compound 10 µM, first compound 3.16 µM) of the same compound?
A: 50.4%

Q: And the viability, T/C (second compound 10 µM, first compound 10 µM)?
A: 22.9%
